# Measurements reported in ChEMBL document CHEMBL4808208, “Hepatoselective Dihydroquinolizinone Bis-acids for HBsAg mRNA Degradation” (ACS Med Chem Lett, 2021).
# Where “and” joins values, the source holds several entries; their conditions need not be identical. Identical values can stand only once. Calls of active or inactive are those of the source. The rule behind the calls is not given here.
# Assays:
# [1] = target: T1, Solute carrier organic anion transporter family member 1B1 (Homo sapiens, UniProt Q9Y6L6); test: Substrate activity at OATP1B1 (unknown origin) expressed in HEK293 cells assessed as ratio of drug uptake in absence of transporter inhibitor,estradiol-17beta-glucuronide to drug uptake in presence of transporter inhibitor, estradiol-17beta-glucuronide by LC-MS/MS analysis; format: ADME, cell-based
# T1 sequence (Q9Y6L6 whole entry): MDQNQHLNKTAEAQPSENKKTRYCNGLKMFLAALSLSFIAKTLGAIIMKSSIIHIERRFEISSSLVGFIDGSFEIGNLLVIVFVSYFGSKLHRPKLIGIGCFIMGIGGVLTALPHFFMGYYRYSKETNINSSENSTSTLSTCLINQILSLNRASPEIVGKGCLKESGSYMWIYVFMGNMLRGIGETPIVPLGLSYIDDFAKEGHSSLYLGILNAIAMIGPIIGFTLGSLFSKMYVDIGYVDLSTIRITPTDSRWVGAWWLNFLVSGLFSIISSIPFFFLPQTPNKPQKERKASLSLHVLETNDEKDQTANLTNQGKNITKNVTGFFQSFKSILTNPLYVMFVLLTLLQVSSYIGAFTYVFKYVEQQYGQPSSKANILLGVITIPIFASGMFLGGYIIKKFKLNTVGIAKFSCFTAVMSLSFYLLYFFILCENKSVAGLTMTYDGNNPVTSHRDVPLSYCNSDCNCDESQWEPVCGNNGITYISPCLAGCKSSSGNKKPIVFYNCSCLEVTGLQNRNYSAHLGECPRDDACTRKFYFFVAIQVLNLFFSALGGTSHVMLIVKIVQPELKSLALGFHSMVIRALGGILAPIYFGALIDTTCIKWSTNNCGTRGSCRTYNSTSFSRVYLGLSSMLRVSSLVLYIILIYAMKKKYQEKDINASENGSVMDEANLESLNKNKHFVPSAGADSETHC
# [2] = Cmax in CD-1 mouse liver at 8 mg/kg, po measured for 24 hrs by LC-MS/MS analysis; format: ADME, organism-based; parameters: route oral, dose 8 mg/kg, time 24 hrs
# [3] = Metabolic stability in mouse liver microsomes assessed as clearance preincubated with compound for 10 mins followed by NADPH regenerating system addition and measured per mg protein for 60 mins by LC/MS-MS analysis; format: ADME, Microsome; details: time 70 min, read-out: CLH
# [4] = AUC (last) in CD-1 mouse plasma at 3 mg/kg, iv measured for 24 hrs by LC-MS/MS analysis; format: ADME, organism-based; parameters: route intravenous, time 24 hrs, dose 3 mg/kg
# Cytochrome P450 3A4 [5] = target: T2, Cytochrome P450 3A4 (Homo sapiens, UniProt P08684); test: Inhibition of CYP3A4 in human liver microsomes using testosterone as substrate preincubated for 5 mins followed by NADPH addition by LC-MS/MS analysis; format: ADME
# T2 sequence (P08684 whole entry): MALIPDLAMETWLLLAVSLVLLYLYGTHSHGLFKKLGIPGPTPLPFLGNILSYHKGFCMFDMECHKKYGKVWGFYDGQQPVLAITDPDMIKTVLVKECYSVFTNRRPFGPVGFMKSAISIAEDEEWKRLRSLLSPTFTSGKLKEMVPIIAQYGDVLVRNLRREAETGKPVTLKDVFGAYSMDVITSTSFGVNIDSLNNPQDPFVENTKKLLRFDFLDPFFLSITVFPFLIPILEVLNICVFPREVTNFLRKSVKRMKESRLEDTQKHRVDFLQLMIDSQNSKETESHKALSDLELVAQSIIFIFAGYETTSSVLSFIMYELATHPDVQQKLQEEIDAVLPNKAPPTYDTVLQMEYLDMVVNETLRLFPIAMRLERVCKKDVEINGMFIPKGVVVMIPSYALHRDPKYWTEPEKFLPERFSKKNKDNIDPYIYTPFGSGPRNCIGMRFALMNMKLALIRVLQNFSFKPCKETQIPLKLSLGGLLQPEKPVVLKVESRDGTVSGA
# [6] = Volume of distribution at steady state in CD-1 mouse at 3 mg/kg, iv measured for 24 hrs by LC-MS/MS analysis; format: ADME, organism-based; details: in vivo, read-out: Vdss
# [7] = Drug concentration in CD-1 mouse liver at 8 mg/kg, po measured after 1 hr by LC-MS/MS analysis; format: ADME, organism-based; details: read-out: Ct
# [8] = target: Terminal nucleotidyltransferase 4B (Homo sapiens) (UniProt Q8NDF8); test: Inhibition of Myc-DDK-tagged human PAPD5 expressed in HEK293 cells assessed as inhibition of poly-adenylation reaction using P32-labeled RNA oligonucleotides (5'-GCCUUUCAUCUCUAACUGCGAAAAAAAAAA-3') as substrate measured for 20 mins by phosphor imaging analysis; details: dose 0.37-10 µM
# Sequence of Terminal nucleotidyltransferase 4B (Homo sapiens) (Q8NDF8 whole entry): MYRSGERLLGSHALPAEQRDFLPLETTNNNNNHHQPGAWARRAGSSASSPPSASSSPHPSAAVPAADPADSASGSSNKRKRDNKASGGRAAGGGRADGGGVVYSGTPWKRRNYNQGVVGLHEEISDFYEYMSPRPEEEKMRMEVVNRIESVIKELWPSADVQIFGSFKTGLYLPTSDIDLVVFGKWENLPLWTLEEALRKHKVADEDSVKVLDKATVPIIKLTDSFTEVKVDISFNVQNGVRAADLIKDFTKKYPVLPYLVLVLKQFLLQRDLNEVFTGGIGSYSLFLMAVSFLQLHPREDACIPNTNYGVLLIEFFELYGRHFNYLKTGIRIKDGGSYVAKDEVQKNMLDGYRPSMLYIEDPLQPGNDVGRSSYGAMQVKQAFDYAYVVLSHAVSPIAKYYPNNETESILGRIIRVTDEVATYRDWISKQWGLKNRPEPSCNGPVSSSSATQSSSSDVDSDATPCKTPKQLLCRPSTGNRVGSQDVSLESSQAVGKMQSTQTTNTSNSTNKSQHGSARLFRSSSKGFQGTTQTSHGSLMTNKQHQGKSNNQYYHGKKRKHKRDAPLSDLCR
# [9] = Drug concentration in CD-1 mouse liver at 8 mg/kg, po measured after 15 mins by LC-MS/MS analysis; format: ADME, organism-based; details: read-out: Ct
# Cytochrome P450 3A4 [10] = target: T2, Cytochrome P450 3A4; test: Inhibition of CYP3A4 in human liver microsomes using midazolam as substrate preincubated for 5 mins followed by NADPH addition by LC-MS/MS analysis; format: ADME
# [11] = Ratio of AUC(last) in liver to plasma in CD-1 mouse at 8 mg/kg, po by LC-MS/MS analysis; format: ADME, organism-based
# OATP1B1 = test: Ratio of drug uptake in HEK293 cells transfected with OATP1B1 (unknown origin) in absence of transporter inhibitor, estradiol-17beta-glucuronide to drug uptake in HEK293 cells in absence of transporter inhibitor, estradiol-17beta-glucuronide by LC-MS/MS analysis; format: ADME, cell-based; details: human, HEK293 cells transfected with OATP1B1 versus HEK293 cells
# [12] = Drug concentration in CD-1 mouse liver at 8 mg/kg, po measured after 30 mins by LC-MS/MS analysis; format: ADME, organism-based; details: read-out: Ct
# [13] = Drug concentration in CD-1 mouse liver at 8 mg/kg, po measured after 4 hrs by LC-MS/MS analysis; format: ADME, organism-based; details: read-out: Ct
# Cytochrome P450 2C9 = Cytochrome P450 2C9 (Homo sapiens, UniProt P11712); test: Inhibition of CYP2C9 in human liver microsomes using tolbutamide as substrate preincubated for 5 mins followed by NADPH addition by LC-MS/MS analysis; format: ADME
# Sequence of Cytochrome P450 2C9 (P11712 whole entry): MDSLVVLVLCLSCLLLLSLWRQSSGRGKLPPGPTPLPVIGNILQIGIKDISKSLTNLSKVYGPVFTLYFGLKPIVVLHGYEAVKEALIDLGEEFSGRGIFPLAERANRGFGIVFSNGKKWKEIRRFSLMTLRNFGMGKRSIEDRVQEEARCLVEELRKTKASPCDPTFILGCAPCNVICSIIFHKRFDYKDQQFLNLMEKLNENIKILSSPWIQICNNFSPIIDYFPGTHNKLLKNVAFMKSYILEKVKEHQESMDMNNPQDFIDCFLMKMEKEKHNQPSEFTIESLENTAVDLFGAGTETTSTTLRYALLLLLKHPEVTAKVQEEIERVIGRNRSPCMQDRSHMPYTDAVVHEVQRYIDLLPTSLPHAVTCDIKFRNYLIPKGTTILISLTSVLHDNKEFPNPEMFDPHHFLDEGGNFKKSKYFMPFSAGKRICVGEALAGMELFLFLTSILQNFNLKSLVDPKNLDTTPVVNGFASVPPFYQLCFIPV
# [14] = Ratio of Cmax in liver to plasma in CD-1 mouse at 8 mg/kg, po by LC-MS/MS analysis; format: ADME, organism-based
# Cytochrome P450 2D6 = Cytochrome P450 2D6 (Homo sapiens, UniProt P10635); test: Inhibition of CYP2D6 in human liver microsomes using dextromethorphan as substrate preincubated for 5 mins followed by NADPH addition by LC-MS/MS analysis; format: ADME
# Sequence of Cytochrome P450 2D6 (P10635 whole entry): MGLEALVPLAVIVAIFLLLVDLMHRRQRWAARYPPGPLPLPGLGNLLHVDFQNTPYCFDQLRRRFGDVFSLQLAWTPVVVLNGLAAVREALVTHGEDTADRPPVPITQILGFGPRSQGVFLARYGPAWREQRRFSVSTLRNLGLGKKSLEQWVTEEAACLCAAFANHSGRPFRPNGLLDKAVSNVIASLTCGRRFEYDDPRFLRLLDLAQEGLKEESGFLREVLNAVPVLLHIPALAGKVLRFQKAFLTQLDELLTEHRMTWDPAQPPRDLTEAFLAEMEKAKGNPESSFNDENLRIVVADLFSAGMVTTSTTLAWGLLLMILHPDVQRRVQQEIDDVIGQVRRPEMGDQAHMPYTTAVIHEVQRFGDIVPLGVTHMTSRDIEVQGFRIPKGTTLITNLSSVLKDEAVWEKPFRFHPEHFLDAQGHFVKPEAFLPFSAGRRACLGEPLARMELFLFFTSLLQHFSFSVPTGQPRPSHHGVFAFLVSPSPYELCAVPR
# [15] = Apparent permeability of the compound across basolateral to apical side in human Caco-2 cells at 10 uM incubated for 1 hr; format: ADME, cell-based
# [16] = Apparent permeability across apical to basolateral side in MDCK-MDR1 cells at 1 uM measured after 120 mins by LC-MS/MS analysis; format: ADME, cell-based, Canis lupus familiaris; details: dog
# Hepatitis B virus [17] = test: Antiviral activity against Hepatitis B virus infected in human HepG2.2.15 cells assessed as reduction in HBV pregenomic mRNA level at 1 uM measured after 5 days by Northern blot analysis; format: functional, organism-based; details: time 5.0 day
# [18] = Clearance in CD-1 mouse at 3 mg/kg, iv measured for 24 hrs by LC-MS/MS analysis; format: ADME, organism-based; details: in vivo
# Hepatitis B virus [19] = test: Antiviral activity against Hepatitis B virus infected in human HepG2.2.15 cells assessed as reduction in HBsAg level measured after 4 days by AlphaLisa assay; format: functional, organism-based; details: HepG2.2.15, 96 h
# [20] = Cytotoxicity against human HepG2.2.15 cells assessed as reduction in cell viability measured after 4 days by CellTiter-Glo reagent based assay; parameters: species or system HepG2 2.2.15; details: time 4 day
# [21] = 1-Octanol/saturated PBS buffer distribution coefficient, logD of the compound incubated for 1 hr by LC-MS/MS analysis; format: physicochemical
# [22] = Apparent permeability of the compound across apical to basolateral side in human Caco-2 cells at 10 uM incubated for 1 hr; format: ADME, cell-based
# [23] = Drug concentration in CD-1 mouse liver at 8 mg/kg, po measured after 6 hrs by LC-MS/MS analysis; format: ADME, organism-based; details: read-out: Ct
# [24] = Oral bioavailability in CD-1 mouse plasma at 8 mg/kg measured for 24 hrs by LC-MS/MS analysis; format: ADME, organism-based
# [25] = Drug concentration in CD-1 mouse liver at 8 mg/kg, po measured after 2 hrs by LC-MS/MS analysis; format: ADME, organism-based; details: read-out: Ct
smiles,measurement,setting,value
COc1cc2c(cc1OCCCCCCC(=O)O)C[C@@H](C(C)C)n1cc(C(=O)O)c(=O)cc1-2,Ratio,[1],11.17
same,Cmax,[2],333 ng/mL
same,microsomal CLint,[3],0.8 µL/min/mg
same,AUC(0-t) at 24 h,[4],255 ng·h/mL
same,IC50,Cytochrome P450 3A4 [5],> 10 µM
same,Vd,[6],3.26 L/kg
same,concentration at 1 h,[7],300 ng/mL and 660 nM
same,inhibition,[8],Dose-Dependent Effect
same,concentration at 0.25 h,[9],333 ng/mL and 730 nM
same,IC50,Cytochrome P450 3A4 [10],> 10 µM
same,Kp,[11],37.7
same,uptake ratio,OATP1B1,19
same,concentration at 0.5 h,[12],309 ng/mL and 680 nM
same,concentration at 4 h,[13],138 ng/mL and 300 nM
same,IC50,Cytochrome P450 2C9,> 10 µM
same,Kp,[14],20.7
same,IC50,Cytochrome P450 2D6,> 10 µM
same,"Papp B→A at 1 h, 10 µM",[15],2.06 ×10⁻⁶ cm/s
same,"Papp A→B at 2 h, 1 µM",[16],0.38 ×10⁻⁶ cm/s
same,Activity,Hepatitis B virus [17],Active
same,clearance,[18],198 mL/min/kg
same,EC50,Hepatitis B virus [19],0.023 µM
same,CC50 at 96 h,[20],> 10 µM
same,logD at 1 h,[21],-0.65
same,"Papp A→B at 1 h, 10 µM",[22],0.39 ×10⁻⁶ cm/s
same,concentration at 6 h,[23],76 ng/mL and 170 nM
same,bioavailability,[24],5.1%
same,concentration at 2 h,[25],261 ng/mL and 570 nM
